Active and inactive are the calls of the source. The calls are words filed in the database; no cut-off is given here.
Legend:
Hepatocyte [1] = assay: Cytotoxicity in Wistar rat hepatocytes assessed as glutamic-pyruvic transaminase activity at 1 mg/ml after 30 hrs; format: cell-based
Hepatocyte [2] = assay: Antihepatotoxic activity against 1.5 hrs galactosamine pretreatment-induced cytotoxicity in Wistar rat hepatocytes assessed as glutamic-pyruvic transaminase activity at 0.1 mg/ml after 30 hrs relative to control; format: functional
Hepatocyte [3] = assay: Cytotoxicity in Wistar rat hepatocytes assessed as glutamic-pyruvic transaminase activity at 0.01 mg/ml after 30 hrs; format: cell-based
Hepatocyte [4] = assay: Antihepatotoxic activity against 1.5 hrs galactosamine pretreatment-induced cytotoxicity in Wistar rat hepatocytes assessed as glutamic-pyruvic transaminase activity at 1 mg/ml after 30 hrs relative to control; format: functional
Hepatocyte [5] = assay: Cytotoxicity in Wistar rat hepatocytes assessed as glutamic-pyruvic transaminase activity at 0.1 mg/ml after 30 hrs; format: cell-based
Hepatocyte [6] = assay: Antihepatotoxic activity against 1.5 hrs galactosamine pretreatment-induced cytotoxicity in Wistar rat hepatocytes assessed as glutamic-pyruvic transaminase activity at 0.01 mg/ml after 30 hrs relative to control; format: functional
Hepatocyte [7] = assay: Effect on 1.5 hrs galactosamine pretreatment-induced cytotoxicity in Wistar rat hepatocytes assessed as glutamic-pyruvic transaminase activity at 1 uM; format: functional
Hepatocyte [8] = assay: Effect on 1.5 hrs galactosamine pretreatment-induced cytotoxicity in Wistar rat hepatocytes at 1 uM; format: functional, cell-based

SMILES | Activity (Hepatocyte [1]) | Activity (Hepatocyte [2]) | Activity (Hepatocyte [3]) | Activity (Hepatocyte [4]) | Activity (Hepatocyte [5]) | Activity (Hepatocyte [6]) | Activity (Hepatocyte [7]) | Activity (Hepatocyte [8])
O=C(/C=C/c1ccc(O)c(O)c1)O[C@@H]1C[C@@](OC(=O)/C=C/c2ccc(O)c(O)c2)(C(=O)O)C[C@@H](O)[C@@H]1O [CYNARIN] | 51 IU/L | 84% | 20 IU/L | 48% | 27 IU/L | 95% |  | 
COc1cc([C@@H]2c3cc4c(cc3C[C@H]3COC(=O)[C@@H]32)OCO4)cc(OC)c1OC [DESOXYPODOPHYLLOTOXIN] | 137 IU/L | 50% | 43 IU/L | 92% | 35 IU/L | 93% |  | 
C[C@@H]1C[C@H]2[C@@H]3CCC4=CC(=O)C=C[C@]4(C)[C@@]3(F)[C@@H](O)C[C@]2(C)[C@@]1(O)C(=O)CO [DEXAMETHASONE] |  |  |  |  |  |  | 96 IU/L | inactive
CC1(C)[C@@H](O)CC[C@]2(C)[C@H]3C(=O)C=C4[C@@H]5C[C@@](C)(C(=O)O)CC[C@]5(C)CC[C@@]4(C)[C@]3(C)CC[C@@H]12 [ENOXOLONE] | 42 IU/L | 58% | 26 IU/L | 27% | 16 IU/L |  |  | 
CC1(C)[C@@H](O[C@H]2O[C@H](C(=O)O)[C@@H](O)[C@H](O)[C@H]2O[C@@H]2O[C@H](C(=O)O)[C@@H](O)[C@H](O)[C@H]2O)CC[C@]2(C)[C@H]3C(=O)C=C4[C@@H]5C[C@@](C)(C(=O)O)CC[C@]5(C)CC[C@@]4(C)[C@]3(C)CC[C@@H]12 [GLYCYRRHIZIN] | 21 IU/L | 100% | 24 IU/L | 24% | 59 IU/L | 103% |  | 
CSCC[C@H](N)C(=O)O [METHIONINE] | 25 IU/L | 113% | 24 IU/L | 122% | 28 IU/L | 106% |  | 
COc1cc(C(=O)O[C@H]2[C@@H]3C=CO[C@@H](O[C@@H]4O[C@H](CO)[C@@H](O)[C@H](O)[C@H]4O)[C@@H]3[C@@]3(CO)O[C@@H]23)ccc1O [PICROSIDE II] | 40 IU/L | 101% | 27 IU/L | 78% | 28 IU/L | 103% |  | 
O=C(/C=C/c1ccccc1)OC[C@H]1O[C@@H](O[C@@H]2OC=C[C@H]3[C@H](O)[C@@H]4O[C@]4(CO)[C@@H]23)[C@H](O)[C@@H](O)[C@@H]1O [PICROSIDE I] | 131 IU/L | 122% | 24 IU/L | 111% | 50 IU/L | 96% |  | 
COc1cc(C2Oc3cc([C@H]4Oc5cc(O)cc(O)c5C(=O)[C@@H]4O)ccc3OC2CO)ccc1O (some centres undefined) [SILIBININ] | 93 IU/L | 103% | 29 IU/L | 66% | 157 IU/L | 106% |  | 
